Experimental data as given in article doi:10.1101/2024.05.16.594348v1 (bioRxiv, 2024).
Where a SMILES comes first, the peptide text is derived from it. [ ]: non-standard residue; d: D form. βAla = NCCC(=O)O

Key:
hMSCs [1] = test: Peptide degradation in media on top of cells; format: in vitro ADME, human; conditions: 24 h, LCMS
hUVECs [2] = test: Peptide degradation in media on top of cells; format: in vitro ADME, human; conditions: 24 h, LCMS
hMSCs [3] = test: Peptide degradation in Cells condition with MMP-14 inhibitor, hMSCs; format: in vitro ADME, human; conditions: 50 μM peptide, MMP-14 inhibitor NSC 405020, 24 h, LCMS; text to Fig. 4
hUVECs [4] = test: Viability of hUVECs in peptide-crosslinked PEG hydrogels; format: cell-based, human
hMSCs [5] = test: Cell spreading of hMSCs in peptide-crosslinked PEG hydrogels; format: cell-based, human; conditions: PEG hydrogels containing hMSCs or hUVECs at 20 million cells/mL, up to Day 7
[6] = Peptide degradation in cell-free conditioned media; format: in vitro ADME, human; conditions: initial peptide library, 24 h, LCMS, text to Fig. 2B
[7] = Peptide degradation in cell-free conditioned media; format: in vitro ADME, human; conditions: initial peptide library, 24 h, LCMS, text to Fig. 2B; remark: listed apart in the source
[8] = individually synthesized peptides, 50 μM, text to Fig. 4
[9] = initial peptide library, text to Fig. 2B

Compound	degradation in the cells condition, hMSCs (hMSCs [1]; [8]) [%]	degradation in the cells condition, hUVECs (hUVECs [2]; [8]) [%]	degradation in the cells condition, hMSCs (hMSCs [1]; [9]) [%]	degradation in the Cells + Inhibitor condition, hMSCs (hMSCs [3]) [%]	degradation in the cells condition, hUVECs (hUVECs [2]; [9]) [%]	hUVEC cell number after seven days in crosslinked gels, difference (hUVECs [4]; PanMMP compared with the KLVAD peptides, DNA quantification, Fig. 6D)	hUVEC metabolic activity after seven days in crosslinked gels (hUVECs [4]; compared with the KLVAD peptides, alamarBlue, Fig. 6C)	cytotoxicity of hydrogels crosslinked by the peptide (hMSCs [5])	degradation in media condition, hMSC [6]	degradation in media condition, hUVEC [7]
CSCC[C@H](NC(=O)[C@H](CC(C)C)NC(=O)[C@H](CC(=O)O)NC(=O)[C@H](C)NC(=O)[C@@H](NC(=O)[C@H](CC(C)C)NC(=O)[C@H](CCCCN)NC(=O)CCNC(C)=O)C(C)C)C(=O)N[C@@H](C)C(=O)N[C@@H](CO)C(=O)N[C@@H](C)C(=O)N[C@@H](CCC(=O)O)C(=O)NCCC(N)=O [KLVAD-LM] (Ac-[βAla]KLVADLMASAE[βAla]-NH2)	54	16								
GPQGIWGQ [PanMMP, reference compound]	65		61	22	31	not significant	higher metabolic activity			
KLVADNYASAE	22	4	30		8			cytotoxic	less than 3%	less than 3%
